Measured values reported in patent publication US20170044222A1, “Anti-Microbial Coatings and Devices” (priority 2015, published 2017).
Values joined by “and” are separate entries in the source; they are usually repeats but may differ in a detail not shown here. Equal values may be shown once. “Also recorded” adds a separate entry of the source. Ends that are not written are not given here.

Tests used:
epithelial cells = conditions: cited from earlier work
[1] = QCM-D mass attachment, layer thickness and areal mass of tether/peptide layers (Sauerbrey and Voigt-Kelvin); type: physicochemical; conditions: for Chrysophsin-1 attachment ng Voigt-Kelvin / Chrysophsin-1 attachment ng Sauerbrey: 10 μM peptide, 23° C; for Chrysophsin-1 attachment ng Voigt-Kelvin: Voigt-Kelvin viscoelastic model; for Chrysophsin-1 attachment ng Sauerbrey: mean of 3rd-11th overtones ± standard error; for C-CHY1 areal mass (ng/cm^2) Sauerbrey: Sauerbrey estimation divided by crystal surface area; for C-CHY1 areal mass (ng/cm^2) Voigt-Kelvin / PEG/C-CHY1 layer thickness (nm) Voigt-Kelvin: Voigt-Kelvin model; for C-CHY1 areal mass (ng/cm^2) Voigt-Kelvin: includes PEG spacer, attached C-CHY1 and trapped buffer; for PEG/C-CHY1 layer thickness (nm) Voigt-Kelvin: tether plus peptide film, or physically-adsorbed CHY1 film
Protocol: Referring to FIG. 1, the surface is functionalized with the anti-microbial peptide via a flexible linker molecule and exposed to bacteria in the QCM-D using QCM-D sensors as the substrate. Referring to FIG. 2 QCM-D was used to monitor covalent attachment in real-time of the PEG spacer molecule followed by introduction of the C-CHY1 peptide to the functionalized SiO2 surface (FIG. 2). According to the Sauerbrey calculation, the Δm due to PEG spacers is between 2 and 100 ng per crystal (Table 1, below; FIG. 3). The mass of PEG attached decreases with increasing tether length (FIG. 3). PEGylated surfaces show a rigid surface (ΔD values from +1×10^−6 to +2×10^−6 Hz) compared to the bulk fluid baseline, validating the use of Eqn. 1 and 2 for PEG layer calculations. When C-CHY1 is introduced, there is a rapid decrease of Δf corresponding to a Δm of 0.8 to 2.2 μg (Table 1) bound to the surface. This step is accompanied by a large increase in ΔD from near +2×10^−6 to +20×10^−6 Hz after the introduction of C-CHY1. Comparatively, CHY1 introduction leads to a Δf decrease corresponding a Δm of about 0.4 μg of CHY1 being physically-adsorbed on the surface.
Thus, parameters of the system were modeled using the Voigt-Kelvin extended viscoelastic model in Q-Tools software (Biolin Scientific, Stockholm, Sweden). This model corrects the Sauerbrey estimations for higher energy dissipation by adding terms to the Δf relation to mass (Eqn. 3) and ΔD relation to film rigidity (Eqn. 4).
Where ηL is the viscosity of the bulk liquid assumed to be water (kg/m·s); δL, and δf are the decay lengths of the acoustic wave in the bulk liquid and film (m), respectively; mq and mf […], respectively; ρf is the film density (kg/m^3). The layer was modeled to get numerical outputs for layer viscosity, density, and shear modulus (ηm, ρm, and μm), and film thickness. All overtones were modeled at once. The bulk liquid, predominantly PBS or PBS/EDTA, was assumed to have the same viscosity and density as water at 23° C. Model step size and output ranges were changed based on calculated theoretical values using estimated extended molecule size, and the lowest chi square value (χ^2) was taken. Once values of thickness (nm) and density (kg/m^3) were found with the model, the two were multiplied to calculate areal mass in ng/cm^2.
QCM-D: Covalent Linking of C-CHY1. SiO2-coated quartz crystal sensors from Biolin Scientific (Stockholm, Sweden) were used as immobilization platforms for the modified C-CHY1. Before use, SiO2 sensors were cleaned in the QCM-D at 40° C. using ethanol, DI water, 2% sodium dodecyl sulfate (w/v), DI water again, and then nitrogen dried. Lastly, sensor surfaces were treated for 2 min using an oxygen plasma cleaner (SPI Supplies, PA USA) to both clean and functionalize the surface. The SiO2 crystals were then silanized by submerging in a 10% (v/v) (3-Aminopropyl)-trimethoxysilane (APTMS) in methanol solution for 20 min. Each sensor was then rinsed twice thoroughly with methanol and DI water and placed in each QCM-D chamber.
Changes in frequency (Δf, Hz) and dissipation (ΔD, ×10-6 Hz) at the 3rd, 5th, 7th, 9th and 11th overtones were monitored at a constant 23° C. in all chambers using a Q-Sense E4 QCM-D system (Biolin Scientific, Stockholm, Sweden). All flow rates for the solutions were at 0.1 mL/min unless otherwise noted, and all volumes given are on a per chamber basis. PBS/EDTA (pH 7.2) buffer was used to establish a stable baseline measurement. Maleimide PEG N-hydroxysuccinimide ester molecules (MAL-PEG-NHS) with molecular weights (MW) of 866 (ThermoScientific, Waltham Mass., USA), 2000, or 7500 (JenKem Technology USA Inc., Allen, Tex. USA) were purchased. These will be referred to as PEG 866, PEG 2000 and PEG 7500, respectively. One mL of 100 μM MAL-PEG-NHS was flowed through the QCM-D and subsequently incubated for 30 min. Crystals were then rinsed with 1.2 mL of the PBS/EDTA (pH 7.2) buffer. […]

[2] = system: Escherichia coli HB101 (ATCC 33694); assay: Bacterial mortality on peptide-coated QCM-D sensors (LIVE/DEAD BacLight), E. coli; type: cell-based; conditions: for mortality of E. coli: 1 hour exposure to surface-bound peptide, PEG binding at 23° C; for bactericidal activity against E. coli compared across tether lengths: C-CHY1 tethered via PEG 866, 2000 or 7500, 1 hour exposure
Protocol: (§1) Bacterial Strains and Culturing. Escherichia coli HB101 (ATCC 33694) and Staphylococcus aureus (ATCC 48366) were cultured overnight in Luria-Bertani broth (20 g/L). For QCM-D and toxicity studies, cells were harvested at the late logarithmic phase in their growth curve, as confirmed by absorbance measurements (OD(600)=0.7-1.0 arbitrary units) (Thermo Scientific USA, Waltham, Mass. USA). The cells were centrifuged at 1284×g (Centrific Thermo Scientific, Waltham, Mass. USA) and re-suspended in 0.01 M, pH 7.2 phosphate buffered saline (PBS) (Sigma Aldrich, St. Louis, Mo. USA) twice, and then diluted 100-fold to approximately 10^8 cfu/mL.
(§2) Changes in frequency (Δf, Hz) and dissipation (ΔD, ×10-6 Hz) at the 3rd, 5th, 7th, 9th and 11th overtones were monitored at a constant 23° C. in all chambers using a Q-Sense E4 QCM-D system (Biolin Scientific, Stockholm, Sweden). All flow rates for the solutions were at 0.1 mL/min unless otherwise noted, and all volumes given are on a per chamber basis. PBS/EDTA (pH 7.2) buffer was used to establish a stable baseline measurement. Maleimide PEG N-hydroxysuccinimide ester molecules (MAL-PEG-NHS) with molecular weights (MW) of 866 (ThermoScientific, Waltham Mass., USA), 2000, or 7500 (JenKem Technology USA Inc., Allen, Tex. USA) were purchased. These will be referred to as PEG 866, PEG 2000 and PEG 7500, respectively. One mL of 100 μM MAL-PEG-NHS was flowed through the QCM-D and subsequently incubated for 30 min. Crystals were then rinsed with 1.2 mL of the PBS/EDTA (pH 7.2) buffer. Similarly, 1.25 mL of 10 μM C-CHY1 solution was then flown over the sensors and allowed to incubate for 30 min. To rinse excess C-CHY1 off the surface and prepare for the introduction of 2 mL bacteria, a 45 min PBS rinse at 0.3 mL/min was first flowed through the QCM-D. The dilute bacterial solution was allowed to incubate for 1 hour, followed by a final 2 mL PBS (pH 7.2) rinse. The crystals were removed from the chambers and placed in individual petri dishes containing 0.85% (w/v) NaCl solution for bacterial viability testing.
QCM-D Control Experiments: Physical Adsorption of CHY1. Similarly, SiO2-coated sensors were used for physical adsorption of unmodified CHY1 and were prepared as described above. For this experiment there was no APTMS functionalization or PEG flow, thus, after cleaning, the crystals were placed immediately into the QCM-D, PBS (pH 7.2) was used to establish a baseline and 1.25 mL of 10 μM CHY1 solution was introduced. Then, flow was stopped and CHY1 was incubated for 30 min. […]
(§3) Bacterial Mortality. Bacterial mortality was determined immediately after the final rinse of the QCM-D experiment. […]

[3] = system: Staphylococcus aureus (ATCC 48366); assay: Bacterial mortality on peptide-coated QCM-D sensors (LIVE/DEAD BacLight), S. aureus; type: cell-based; conditions: for mortality of S. aureus: 1 hour exposure to surface-bound peptide, PEG binding at 23° C; for bactericidal activity against S. aureus compared across tether lengths: C-CHY1 tethered via PEG 866, 2000 or 7500, 1 hour exposure
Protocol: as §1, §2
QCM-D Control Experiments: Physical Adsorption of CHY1. Similarly, SiO2-coated sensors were used for physical adsorption of unmodified CHY1 and were prepared as described above. For this experiment there was no APTMS functionalization or PEG flow, thus, after cleaning, the crystals were placed immediately into the QCM-D, PBS (pH 7.2) was used to establish a baseline and 1.25 mL of 10 μM CHY1 solution was introduced. Then, flow was stopped and CHY1 was incubated for 30 min. The rest of the protocol described in the previous section was then followed, including the 0.3 mL/min PBS rinse, bacterial flow, bacterial incubation and final PBS rinse. The crystals were removed from the chambers and placed in individual petri dishes containing 0.85% (w/v) NaCl solution for bacterial viability testing. For the next type of control, crystals that had never been coated with APTMS were cleaned and placed into the QCM-D chambers without functionalization. Starting with a PBS rinse, the crystals were exposed to bacteria solution for 1 hour and then rinsed before imaging. For the APTMS control, crystals were cleaned and functionalized with APTMS. Then the procedure continued starting with a PBS rinse (pH 7.2), bacteria introduction, incubation, and a final rinse before imaging. […]
as §3

keratinocyte = conditions: cited from earlier work

Molecule | concentration with significant toxicity against epithelial cells (epithelial cells) | Chrysophsin-1 attachment ng Voigt-Kelvin ([1]; QCM-D) [ng] | Chrysophsin-1 attachment ng Sauerbrey ([1]; QCM-D) [ng] | C-CHY1 areal mass (ng/cm^2) Sauerbrey ([1]; QCM-D) [ng/cm^2] | C-CHY1 areal mass (ng/cm^2) Voigt-Kelvin ([1]; QCM-D) | PEG/C-CHY1 layer thickness (nm) Voigt-Kelvin ([1]; QCM-D) | PEG/C-CHY1 layer thickness (nm) Voigt-Kelvin ([1]; QCM-D, listed as No Tether (PHYS-ADSORB)) [nm] | Δm bound to the surface on peptide introduction ([1]; QCM-D, from Δf decrease on peptide flow, before rinse) | peptide remaining adsorbed after rinse ([1]; physical adsorption, after PBS rinse) | mortality of E. coli [2] [%] | mortality of S. aureus [3] [%] | concentration that negatively affects keratinocyte viability (keratinocyte) | extension of layer: modelled thickness as percent of theoretical maximum thickness ([1]; Voigt-Kelvin thickness vs theoretical maximum) [%] | bactericidal activity against E. coli compared across tether lengths [2] | bactericidal activity against S. aureus compared across tether lengths [3] | mortality of S. aureus after temperature-optimized PEG binding ([3]; PEG 7500 binding at 55° C, back to 23° C for C-CHY1 binding and 1 hour S. aureus incubation) [%]
CC[C@H](C)[C@H](NC(=O)CN)C(=O)NCC(=O)N[C@@H](C)C(=O)N[C@H](C(=O)N[C@@H](CC(C)C)C(=O)N[C@@H](CCCCN)C(=O)N[C@H](C(=O)N[C@@H](CC(C)C)C(=O)N[C@H](C(=O)N[C@H](C(=O)NCC(=O)N[C@@H](CC(C)C)C(=O)N1CCC[C@H]1C(=O)N[C@@H](C)C(=O)N[C@@H](CC(C)C)C(=O)N[C@H](C(=O)N[C@@H](CO)C(=O)N[C@@H](Cc1c[nH]c2ccccc12)C(=O)N[C@H](C(=O)N[C@@H](CCCCN)C(=O)N[C@@H](CCCNC(=N)N)C(=O)N[C@@H](CCCCN)C(=O)N[C@@H](CCCNC(=N)N)C(=O)N[C@@H](CCC(N)=O)C(=O)N[C@@H](CCC(N)=O)C(N)=O)[C@@H](C)CC)[C@@H](C)CC)[C@@H](C)O)[C@@H](C)O)C(C)C)C(C)C [melittin] | 1.2 |  |  |  |  |  |  |  |  |  |  |  |  |  |  | 
FFGWLIKGAIHAGKAIHGLIHRRRH [CHY1, Chrysophsin-1, reference compound] |  | 373.3 ± 58.6 | 204.9 ± 7.99 | 260.9 ± 10.2 | 475.3 ± 74.6 ng/cm^2 | 2.5±0.5 nm | 2.50 ± 0.49 | about 0.4 μg | about 50% | 52.3±1.2 | 56.7±1.1 |  |  |  |  | 
LL-37: human derived cathelicidin peptide |  |  |  |  |  |  |  |  |  |  |  | 10 |  |  |  | 
Maleimide PEG N-hydroxysuccinimide ester [PEG 7500] |  | 1870 ± 176 | 1753 ± 43.9 | 2232 ± 55.0 | 2381±223 ng/cm^2 and 2381 ± 224 ng/cm^2 | 21.9±1.86 nm |  |  |  |  | 64±4.5 |  | 38 | most efficient bactericidal activity; also recorded: highest activity | most efficient bactericidal activity; also recorded: highest activity | 91±6.9
Maleimide PEG N-hydroxysuccinimide ester [PEG 866] |  | 835.2 ± 168 | 874.0 ± 48.8 | 1113 ± 62.2 | 1063±215 ng/cm^2 |  |  |  |  | 46±2.3 |  |  |  |  |  | 
Maleimide PEG N-hydroxysuccinimide ester [PEG 2000] |  | 2284 ± 113 | 2238 ± 60.4 | 2850 ± 76.9 | 2909±144 ng/cm^2 | 17.6±1.3 nm and 17.6±1.32 nm |  |  |  |  |  |  |  | lowest ability to kill | lowest ability to kill | 
